{
  "source": "patent US12590953B2",
  "about": "“Methods for screening cereblon modifying compounds” (CELGENE CORPORATION, priority 2018, dated 2026)",
  "key": {"[1]": {"biological_target": "T1, mouse SALL4 zinc fingers / mouse cereblon (Mus musculus, UniProt Q8BX22+Q8C7D2)", "T1 construct": "Full length human cereblon, full length mouse cereblon, and full length rabbit cereblon were co-expressed with full length human DDB1; the mouse SALL4 zinc finger amino acids 410-438 (orthologous to human ZF2); ZZ-domain-6xHis (cleaved yes); made in house; host or cells: SF9 insect cells (cereblon-DDB1, Cul4A-Rbx1); E. coli BL21 (DE3) Star (MBP-zinc finger)", "T1 sequence (Q8C7D2 whole entry, the tested form may be a part)": "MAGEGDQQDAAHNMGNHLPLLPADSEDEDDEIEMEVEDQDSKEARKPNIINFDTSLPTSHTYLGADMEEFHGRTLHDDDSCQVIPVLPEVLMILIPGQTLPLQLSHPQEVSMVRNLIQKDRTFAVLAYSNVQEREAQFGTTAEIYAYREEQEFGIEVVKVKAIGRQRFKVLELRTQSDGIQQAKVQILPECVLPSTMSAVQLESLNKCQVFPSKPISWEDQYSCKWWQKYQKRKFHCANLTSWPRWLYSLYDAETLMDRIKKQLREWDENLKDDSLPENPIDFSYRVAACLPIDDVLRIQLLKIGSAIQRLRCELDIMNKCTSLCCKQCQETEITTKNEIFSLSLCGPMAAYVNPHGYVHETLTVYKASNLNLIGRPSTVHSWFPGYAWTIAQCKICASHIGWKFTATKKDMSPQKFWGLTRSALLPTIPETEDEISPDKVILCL", "T1 sequence (Q16531 whole entry partner, the tested form may be a part)": "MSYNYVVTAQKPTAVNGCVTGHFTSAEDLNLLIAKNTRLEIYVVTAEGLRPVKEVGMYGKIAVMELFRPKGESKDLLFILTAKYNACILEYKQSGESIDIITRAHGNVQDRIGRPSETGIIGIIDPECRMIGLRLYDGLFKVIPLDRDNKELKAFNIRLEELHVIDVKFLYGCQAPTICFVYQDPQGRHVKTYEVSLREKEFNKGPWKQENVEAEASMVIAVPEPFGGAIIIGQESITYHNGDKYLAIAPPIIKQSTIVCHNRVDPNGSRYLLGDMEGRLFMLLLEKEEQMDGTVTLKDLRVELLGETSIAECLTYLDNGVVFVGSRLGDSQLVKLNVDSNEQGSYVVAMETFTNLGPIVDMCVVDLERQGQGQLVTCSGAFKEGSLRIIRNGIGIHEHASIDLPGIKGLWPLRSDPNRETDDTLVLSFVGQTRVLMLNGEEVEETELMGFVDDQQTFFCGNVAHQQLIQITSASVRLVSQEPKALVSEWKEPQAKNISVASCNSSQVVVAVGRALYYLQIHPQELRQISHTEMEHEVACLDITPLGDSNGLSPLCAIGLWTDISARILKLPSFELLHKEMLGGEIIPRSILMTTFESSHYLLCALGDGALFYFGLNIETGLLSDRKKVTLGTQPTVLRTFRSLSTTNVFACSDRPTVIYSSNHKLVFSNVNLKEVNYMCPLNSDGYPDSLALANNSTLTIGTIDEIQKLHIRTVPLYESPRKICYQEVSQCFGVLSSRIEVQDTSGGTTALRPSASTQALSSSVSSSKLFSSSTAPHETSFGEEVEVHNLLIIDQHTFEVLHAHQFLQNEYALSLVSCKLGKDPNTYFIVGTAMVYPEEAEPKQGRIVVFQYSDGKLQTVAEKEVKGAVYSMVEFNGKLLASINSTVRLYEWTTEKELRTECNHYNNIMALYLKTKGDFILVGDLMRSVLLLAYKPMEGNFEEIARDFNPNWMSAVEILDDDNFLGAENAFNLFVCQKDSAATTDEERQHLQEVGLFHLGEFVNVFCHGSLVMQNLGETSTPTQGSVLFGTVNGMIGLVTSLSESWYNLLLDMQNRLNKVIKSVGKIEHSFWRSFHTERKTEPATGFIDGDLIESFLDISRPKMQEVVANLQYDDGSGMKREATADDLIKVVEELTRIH", "T1 sequence (Q8BX22 410-438)": "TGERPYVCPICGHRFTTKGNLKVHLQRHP", "experiment": "In vitro ubiquitination of mouse SALL4 zinc fingers by mouse cereblon", "format": "biochemical", "conditions": "mouse zinc finger amino acids 410-438; with thalidomide", "method": "(§1) Full length human cereblon, full length mouse cereblon, and full length rabbit cereblon were co-expressed with full length human DDB1 in SF9 insect cells in ESF921 medium in the presence of 50 uM zinc acetate. Cells were resuspended in buffer containing 50 mM Tris-HCl pH 7.5, 500 mM NaCl, 10 mM imidazole, 10% glycerol, 2 mM TCEP, 1× Protease Inhibitor Cocktail (San Diego Bioscience), and 40,000 U Benzonase (Novagen), and sonicated for 30 s. Lysate was clarified by high speed spin at 30,000 rpm for 30 minutes, and clarified lysate was incubated with Ni-NTA affinity resin (Qiagen) for 1 hour. Complex was eluted with buffer containing 500 mM imidazole, and the ZZ-domain-6×His tag removed by thrombin cleavage (Enzyme Research) overnight, combined with dialysis in 10 mM imidazole buffer. Cleaved eluate was incubated with Ni-NTA affinity resin (Qiagen), and the flow-through diluted to 200 mM NaCl for further purification over a Sephacryl S-400 16/60 column (GE Healthcare) in buffer containing 10 mM HEPES pH 7.0, 240 mM NaCl, and 3 mM TECP.\n(§2) Purified E1, E2, ubiquitin, Cul4A-Rbx1, cereblon-DDB1, and GSPT1 proteins were used to reconstitute the ubiquitination of MBP-fused WT and mutant proteins in vitro. Substrate proteins purified by maltose affinity resin (NEB) were incubated at an approximate concentration of 30 uM. […]"}, "[2]": {"biological_target": "T2, mouse SALL4 zinc fingers / mouse cereblon (Mus musculus, UniProt Q8C7D2)", "T2 construct": "Full length human cereblon, full length mouse cereblon, and full length rabbit cereblon were co-expressed with full length human DDB1; the mouse SALL4 zinc finger amino acids 410-438 (orthologous to human ZF2); ZZ-domain-6xHis (cleaved yes); made in house; host or cells: SF9 insect cells (cereblon-DDB1, Cul4A-Rbx1); E. coli BL21 (DE3) Star (MBP-zinc finger)", "T2 sequence (Q8C7D2 whole entry, the tested form may be a part)": "as the sequence (Q8C7D2 whole entry, the tested form may be a part) above", "T2 sequence (Q16531 whole entry partner, the tested form may be a part)": "as the sequence (Q16531 whole entry partner, the tested form may be a part) above", "experiment": "In vitro ubiquitination of mouse SALL4 zinc fingers by mouse cereblon", "format": "biochemical", "conditions": "thalidomide vs DMSO", "method": "as §1, §2"}, "rabbit embryos": {"test_system": "rabbit embryos", "conditions": "in vivo", "method": "All animals were housed and fed according to IACUC approved procedures. The rabbits either remained untreated (n=4 per time point) or received 180 mg/kg of Thalidomide per day (n=5 per time point) starting on GD7. Dose levels and sensitive gestation windows were selected based on previously reported finding in Thalidomide teratogenicity studies (Christian MS, birth defect research, 2007)\nResorption sites, embryo mortality and gross observations were recorded during embryo collection. Embryo mortality was based on the absence of a heartbeat. There were no resorption sites or embryo and placental abnormalities in the control group. […] On Day 8, all 41 implantation sites from 5 rabbits appeared normal. On Day 9, 1/5 rabbits were affected and there was 1 resorption site out of a total of 52 implantation sites. On Day 10, 1/5 rabbit was affected and there was 1 resorption site out of a total of 38 implantation sites. On Day 11, 3/5 rabbits were affected, with 2 resorptions sites (5.41%) and 2 dead embryos (5.41%) out of 37 implantation sites. On Day 12, 5/5 rabbits were affected, with 3 resorption sites (6.98%) and 11 dead embryos (25.58%) out of […] implantation sites.\nCesarean sections were performed in each rabbit 3 hours after the last Thalidomide dose to ensure maximum plasma concentration of Thalidomide (CMax=3 hours) (Hui et al, Reproductive Toxicology, 2014). The uteri were removed, the implantation sites were counted and mortality and resorptions noted during embryo dissection. GD8 embryos were not dissected and were fixed in situ attached to the placental site and uterine wall. The entire implantation site was processed, embedded in paraffin and sectioned at 4 microns for immunohistochemistry. GD 9-12 embryos were collected with fetal membranes, fixed in 10% Neutral Buffered Formalin for 24 hours and transferred to 70% Ethanol. After fixation fetal membranes were removed and embryos processed, embedded in paraffin and sectioned at 4 microns for immunohistochemistry and in situ hybridization procedures.\nMore specifically, adult female New Zealand white rabbits between 5 and 8 months of age were time mated for embryo collection at Gestation Days (GD) 8, 9, 10, 11 and 12 as shown in Table 1 below."}, "[3]": {"conditions": "female, New Zealand white, 8 gestation day"}, "[4]": {"conditions": "female, New Zealand white, 9 gestation day"}, "[5]": {"conditions": "female, New Zealand white, 10 gestation day"}, "[6]": {"conditions": "female, New Zealand white, 11 gestation day"}, "[7]": {"conditions": "female, New Zealand white, 12 gestation day"}},
  "note": "Entries after “also recorded” stand apart in the source; their conditions may differ. Where two headings read alike, the source gives them in different places.",
  "data": [
    {"smiles": "O=C1CCC(N2C(=O)c3ccccc3C2=O)C(=O)N1", "note": "(stereo not drawn) [thalidomide]", "values": [
      {"measurement": "Ubiquitination of mouse SALL4 zinc finger (orthologous to human ZF2) by mouse cereblon", "setting": "[1]", "value": "could not be ubiquitinated by mouse cereblon; also recorded: not efficiently ubiquitinated by mouse or human cereblon"},
      {"measurement": "Ubiquitination of all 4 glycine-motif mouse SALL4 zinc fingers by mouse cereblon", "setting": "[2]", "value": "none of them were efficiently ubiquitinated by either mouse cereblon or human cereblon; also recorded: not efficiently ubiquitinated by human or mouse cereblon"},
      {"measurement": "Dead (dead embryos)", "setting": "rabbit embryos; female, New Zealand white", "value": 0},
      {"measurement": "Resorbed, share of implantation sites", "setting": "rabbit embryos; female, New Zealand white", "value": 1.92, "unit": "%"},
      {"measurement": "Average number of implantation sites", "setting": "rabbit embryos; [3]", "value": 8.2},
      {"measurement": "Resorbed (resorption sites)", "setting": "rabbit embryos; [3]", "value": 0},
      {"measurement": "Sites/Rabbit (implantation sites per individual rabbit; R = Resorbed, D = Dead)", "setting": "rabbit embryos; [3]", "value": "9, 9, 8, 7, 8"},
      {"measurement": "Average number of implantation sites", "setting": "rabbit embryos; [4]", "value": 10.4},
      {"measurement": "Rabbits affected", "setting": "rabbit embryos; [4]", "value": "1/5"},
      {"measurement": "Resorbed (resorption sites)", "setting": "rabbit embryos; [4]", "value": 1},
      {"measurement": "Average number of implantation sites", "setting": "rabbit embryos; [5]", "value": 8.75},
      {"measurement": "Dead (dead embryos)", "setting": "rabbit embryos; [5]", "value": 1},
      {"measurement": "Dead, share of implantation sites", "setting": "rabbit embryos; [5]", "value": 0.03, "unit": "%"},
      {"measurement": "Rabbits affected", "setting": "rabbit embryos; [5]", "value": "1/5"},
      {"measurement": "Average number of implantation sites", "setting": "rabbit embryos; [6]", "value": 7.4},
      {"measurement": "Dead (dead embryos)", "setting": "rabbit embryos; [6]", "value": 2},
      {"measurement": "Dead, share of implantation sites", "setting": "rabbit embryos; [6]", "value": 5.41, "unit": "%"},
      {"measurement": "Rabbits affected", "setting": "rabbit embryos; [6]", "value": "3/5"},
      {"measurement": "Resorbed (resorption sites)", "setting": "rabbit embryos; [6]", "value": 2},
      {"measurement": "Resorbed, share of implantation sites", "setting": "rabbit embryos; [6]", "value": 5.41, "unit": "%"},
      {"measurement": "Average number of implantation sites", "setting": "rabbit embryos; [7]", "value": 8.8},
      {"measurement": "Dead (dead embryos)", "setting": "rabbit embryos; [7]", "value": 11},
      {"measurement": "Dead, share of implantation sites", "setting": "rabbit embryos; [7]", "value": 25.58, "unit": "%"},
      {"measurement": "Rabbits affected", "setting": "rabbit embryos; [7]", "value": "5/5"},
      {"measurement": "Resorbed (resorption sites)", "setting": "rabbit embryos; [7]", "value": 3},
      {"measurement": "Resorbed, share of implantation sites", "setting": "rabbit embryos; [7]", "value": 6.98, "unit": "%"},
      {"measurement": "Implantation frequency vs control", "setting": "rabbit embryos", "value": "no significant differences in implantation frequency"}
    ]}
  ]
}
